Earlier results as cited in patent US20170112824A1, “COMBINATION THERAPIES FOR THE TREATMENT OF FUNGAL INFECTIONS” (priority 2015, published 2017).

Assays:
[1] = in vivo

absorption [1]: readily absorbed
water solubility: water-soluble
SMILES: NC(=O)NO [Hydroxyurea, hydroxyurea]
